According to US20100203576A1, “PROCESS FOR DETERMINATION OF MICROORGANISMS' RESISTANCE TO ANTIBIOTICS” (INTELLIGENCE ARTIFICIELLE APPLICATIONS, priority 2009, published 2010):

Tested on: Escherichia coli
Assay: Antibiogram resistance of similar Escherichia coli strains recorded in the data base
Format: cell-based
Parameters: key to Resistance, MO list in data base 1 / Resistance, MO list in data base 2 / Resistance, MO list in data base 3 / Resistance, MO list in data base 4: R: significant resistance; I: average resistance; S: without resistance
Settings: for Resistance of Escherichia coli species 1 to 4 (in words): Escherichia coli species 1 to 4, similar between 98.5 to 83.6% to the urine specimen strain; for Resistance, MO list in data base 1: Escherichia coli strain 1, similarity 98.5%; for Resistance, MO list in data base 2: Escherichia coli strain 2, similarity 97.8%; for Resistance, MO list in data base 3: Escherichia coli strain 3, similarity 84.2%; for Resistance, MO list in data base 4: Escherichia coli strain 4, similarity 83.6%

Compound	Resistance of Escherichia coli species 1 to 4 (in words)	Resistance, MO list in data base 1	Resistance, MO list in data base 2	Resistance, MO list in data base 3	Resistance, MO list in data base 4
CC1(C)S[C@@H]2[C@H](NC(=O)[C@H](N)c3ccc(O)cc3)C(=O)N2[C@H]1C(=O)O [AMOXICILLIN, amoxicillin]	resistant	R	R	R	R
CC(=O)OCC1=C(C(=O)O)N2C(=O)[C@@H](NC(=O)Cc3cccs3)[C@H]2SC1 [CEPHALOTIN, cefalotin]	resistant	R	R	R	R
CO/N=C(\C(=O)N[C@@H]1C(=O)N2C(C(=O)O)=C(CSc3nc(=O)c(O)nn3C)CS[C@H]12)c1csc(N)n1 [CETRIAXONE, cetriaxone]	not resistant	S	S	S	S
O=C(O)c1cn(C2CC2)c2cc(N3CCNCC3)c(F)cc2c1=O [CIPROFLOXACIN]		R	R		I
CCN1CCN(C(=O)N[C@@H](C(=O)N[C@@H]2C(=O)N3[C@@H]2SC(C)(C)[C@@H]3C(=O)O)c2ccccc2)C(=O)C1=O [PIPERACILLIN, piperacillin]	resistant	R	R	R	R
gentamicin	not resistant	S	S	S	S
